# Measurements published in ChEMBL document CHEMBL1201862, “PubChem BioAssay data set” (2004).
#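 1) Cells in 96-well plates. 2) Compound, 48 h, 5 concentrations. 3) Linear interpolation between surrounding doses. 4) Unreached endpoint = highest concentration. GI50 marks 50% less growth.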 Active and inactive are the calls of the source. Rule as the data show it: active = GI50 up to about 1.1 µM and inactive = higher. Where a SMILES comes first, the peptide text is derived from it. The star is where a group is joined. Cbz = O=C(OCc1ccccc1)*
# Tests used:
# Test in all cases: NCI-60 cell line screen, 48 h
# [1] = test system: M14
# [2] = test system: SK-OV-3
# [3] = test system: ACHN
# [4] = test system: RPMI-8226
# [5] = test system: MOLT-4
# [6] = test system: A549
# [7] = test system: NCI-H23
# [8] = test system: HL-60
# [9] = test system: IGROV-1
# [10] = test system: SNB-75
# [11] = test system: UACC-62
# [12] = test system: HOP-92
# [13] = test system: OVCAR-8
# [14] = test system: CAKI-1
# [15] = test system: UO-31
# [16] = test system: PC-3
# [17] = test system: MDA-MB-435
# [18] = test system: OVCAR-4
# [19] = test system: BT-549
SMILES,GI50 [1],GI50 [2],GI50 [3],GI50 [4],GI50 [5],GI50 [6],GI50 [7],GI50 [8],GI50 [9],GI50 [10],GI50 [11],GI50 [12],GI50 [13],GI50 [14],GI50 [15],GI50 [16],GI50 [17],GI50 [18],GI50 [19]
N#CC1=C(Cl)NC(Cl)=C(C#N)C1c1c(Cl)cccc1Cl,38.8 µM (inactive),29.7 µM (inactive),39.1 µM (inactive),22.5 µM (inactive),32.5 µM (inactive),29.1 µM (inactive),35.9 µM (inactive),19.6 µM (inactive),37.9 µM (inactive),34.4 µM (inactive),30.2 µM (inactive),21.4 µM (inactive),26.1 µM (inactive),55.6 µM (inactive),49.4 µM (inactive),–,–,–,–
CCSc1cc2c(cc1O)CC[C@@H]1[C@@H]2CC[C@]2(C)[C@@H](O)CC[C@@H]12,–,17.8 µM (inactive),11.3 µM (inactive),8.17 µM (inactive),4.98 µM (inactive),4.3 µM (inactive),18.8 µM (inactive),4.54 µM (inactive),11.7 µM (inactive),15.2 µM (inactive),11.2 µM (inactive),8.77 µM (inactive),13.3 µM (inactive),12.6 µM (inactive),15.4 µM (inactive),5.71 µM (inactive),1.98 µM (inactive),18.3 µM (inactive),–
N#Cc1nc(C(=O)c2ccccc2)oc1N,> 100 µM (inactive),> 100 µM (inactive),> 100 µM (inactive),> 100 µM (inactive),> 100 µM (inactive),> 100 µM (inactive),–,> 100 µM (inactive),64.9 µM (inactive),0.052 µM (active),> 100 µM (inactive),> 100 µM (inactive),> 100 µM (inactive),> 100 µM (inactive),–,> 100 µM (inactive),> 100 µM (inactive),> 100 µM (inactive),–
CCC1(O)CC(OC2CC(N(C)C)C(OC3CC(O)C(OC4OC(C)C(=O)C=C4N)C(C)O3)C(C)O2)c2c(O)c3c(c(O)c2C1C(=O)OC)C(=O)c1cccc(O)c1C3=O (configuration not stated),0.01 µM (active),0.00274 µM (active),0.00418 µM (active),0.00314 µM (active),0.00231 µM (active),0.00356 µM (active),0.0189 µM (active),0.00154 µM (active),0.00354 µM (active),0.0311 µM (active),0.0106 µM (active),0.0164 µM (active),0.00398 µM (active),0.00489 µM (active),0.0472 µM (active),0.00535 µM (active),0.00371 µM (active),0.01 µM (active),–
N#CCSc1c(-c2ccccc2)c(=O)n(-c2ccccc2)c(=S)n1-c1ccccc1,> 100 µM (inactive),> 100 µM (inactive),> 100 µM (inactive),> 100 µM (inactive),> 100 µM (inactive),> 100 µM (inactive),> 100 µM (inactive),> 100 µM (inactive),> 100 µM (inactive),20.1 µM (inactive),32.9 µM (inactive),4.99 µM (inactive),> 100 µM (inactive),> 100 µM (inactive),> 100 µM (inactive),> 100 µM (inactive),90.6 µM (inactive),> 100 µM (inactive),–
CCOC(=O)CCC(NC(=O)CNC(=O)CNC(=O)C(CCC(=O)OCC)NC(=O)C(CCC(=O)OCC)NC(=O)C(CCC(=O)OCC)NC(=O)OCc1ccccc1)C(=O)NC(CCC(=O)OCC)C(=O)NC(CCC(=O)OCC)C(=O)OCC (configuration not stated) (Cbz-E(OEt)E(OEt)E(OEt)GGE(OEt)E(OEt)E(OEt)-OEt; configuration not given here),> 75 µM (inactive),> 75 µM (inactive),> 75 µM (inactive),> 75 µM (inactive),> 75 µM (inactive),> 75 µM (inactive),> 75 µM (inactive),–,> 75 µM (inactive),> 75 µM (inactive),> 75 µM (inactive),–,> 75 µM (inactive),> 75 µM (inactive),> 75 µM (inactive),> 75 µM (inactive),> 75 µM (inactive),> 75 µM (inactive),–
O=C(NCCCl)NCc1ccccc1,–,> 100 µM (inactive),> 100 µM (inactive),> 100 µM (inactive),> 100 µM (inactive),> 100 µM (inactive),> 100 µM (inactive),> 100 µM (inactive),> 100 µM (inactive),> 100 µM (inactive),> 100 µM (inactive),> 100 µM (inactive),> 100 µM (inactive),> 100 µM (inactive),> 100 µM (inactive),> 100 µM (inactive),> 100 µM (inactive),> 100 µM (inactive),–
NC(=O)Nc1c(Cl)cc(S(N)(=O)=O)cc1Cl,> 100 µM (inactive),> 100 µM (inactive),–,> 100 µM (inactive),> 100 µM (inactive),> 100 µM (inactive),> 100 µM (inactive),> 100 µM (inactive),> 100 µM (inactive),> 100 µM (inactive),> 100 µM (inactive),> 100 µM (inactive),> 100 µM (inactive),> 100 µM (inactive),> 100 µM (inactive),–,> 100 µM (inactive),> 100 µM (inactive),> 100 µM (inactive)
COc1ccc(N2C(=O)/C(=C\c3cc(OC)c(OC)c(OC)c3)S(=O)(=O)C2c2ccccc2)cc1 (configuration not stated),19.4 µM (inactive),37.5 µM (inactive),48.3 µM (inactive),12.2 µM (inactive),28.5 µM (inactive),26.2 µM (inactive),25.8 µM (inactive),–,–,–,21.6 µM (inactive),41.7 µM (inactive),25.2 µM (inactive),84.7 µM (inactive),14.8 µM (inactive),–,21.8 µM (inactive),42 µM (inactive),22 µM (inactive)
CC(=O)Nc1ccc(/C=C2/NC(=S)N(/C=C3\C(=O)Oc4ccccc4C3=O)C2=O)cc1,58.3 µM (inactive),66.1 µM (inactive),> 100 µM (inactive),47.9 µM (inactive),48 µM (inactive),58.9 µM (inactive),67.3 µM (inactive),40.5 µM (inactive),49 µM (inactive),15.8 µM (inactive),77.3 µM (inactive),63.2 µM (inactive),38.6 µM (inactive),49.5 µM (inactive),39.5 µM (inactive),54.5 µM (inactive),75.5 µM (inactive),51.1 µM (inactive),–
CN1C/C(=C\c2ccc(Cl)cc2)C(=O)/C(=C/c2ccc(Cl)cc2)C1,1.73 µM (inactive),–,3.15 µM (inactive),0.193 µM (active),0.326 µM (active),2.2 µM (inactive),2.44 µM (inactive),0.676 µM (active),1.4 µM (inactive),0.635 µM (active),2.22 µM (inactive),> 26.9 µM (inactive),0.232 µM (active),1.3 µM (inactive),1.77 µM (inactive),1.77 µM (inactive),1.72 µM (inactive),1.11 µM (active),–
Cn1[nH]nn/c1=N\N=C\c1ccccc1,> 10 µM (inactive),> 10 µM (inactive),> 10 µM (inactive),> 10 µM (inactive),> 10 µM (inactive),> 10 µM (inactive),> 10 µM (inactive),> 10 µM (inactive),> 10 µM (inactive),> 10 µM (inactive),> 10 µM (inactive),> 10 µM (inactive),> 10 µM (inactive),> 10 µM (inactive),> 10 µM (inactive),> 10 µM (inactive),> 10 µM (inactive),> 10 µM (inactive),–
COC(=O)/C=C(\C)C(=O)N(C)c1ccccc1I,> 100 µM (inactive),> 100 µM (inactive),> 100 µM (inactive),> 100 µM (inactive),> 100 µM (inactive),> 100 µM (inactive),> 100 µM (inactive),–,–,76.9 µM (inactive),> 100 µM (inactive),> 100 µM (inactive),> 100 µM (inactive),72.1 µM (inactive),> 100 µM (inactive),> 100 µM (inactive),> 100 µM (inactive),> 100 µM (inactive),–
COC(=O)[C@@H]1CN(C(C)=O)C(=O)N1,> 100 µM (inactive),> 100 µM (inactive),> 100 µM (inactive),> 100 µM (inactive),> 100 µM (inactive),> 100 µM (inactive),> 100 µM (inactive),> 100 µM (inactive),> 100 µM (inactive),> 100 µM (inactive),> 100 µM (inactive),> 100 µM (inactive),> 100 µM (inactive),> 100 µM (inactive),> 100 µM (inactive),> 100 µM (inactive),> 100 µM (inactive),> 100 µM (inactive),–
CCOC(=O)[C@@H]1OC(c2ccccc2)O[C@H]1C(=O)OCC,> 100 µM (inactive),> 100 µM (inactive),> 100 µM (inactive),> 100 µM (inactive),> 100 µM (inactive),> 100 µM (inactive),> 100 µM (inactive),–,> 100 µM (inactive),> 100 µM (inactive),> 100 µM (inactive),> 100 µM (inactive),> 100 µM (inactive),–,> 100 µM (inactive),> 100 µM (inactive),> 100 µM (inactive),> 100 µM (inactive),–
C#CC1=CC(=O)C(OC)=CC1=O,16.5 µM (inactive),> 100 µM (inactive),3.44 µM (inactive),17.8 µM (inactive),3.25 µM (inactive),33.9 µM (inactive),20.9 µM (inactive),2.44 µM (inactive),–,< 0.01 µM (active),15.7 µM (inactive),15.6 µM (inactive),–,18.6 µM (inactive),4.68 µM (inactive),53.2 µM (inactive),18.1 µM (inactive),–,–
